Where a name gives a salt, the structure may show the parent alone.

Turning to `COc1ccc(NC(=O)c2nc3c(s2)C(=O)C=C(NCCN(C)C)C3=O)cc1` (as salt: methanesulphonate) [Example 18, 5-{[2-(dimethylamino)ethyl]amino}-N-(4-methoxyphenyl)-4,7-dioxo-4,7-dihydro-1,3-benzothiazole-2-carboxamide], the melting point lay in the range of 207 to 208 °C.
In the case of `CN(C)CCNC1=CC(=O)c2sc(C(=O)N3CCOCC3)nc2C1=O` [Example 1, 5-{[2-(dimethylamino)ethyl]amino}-2-(morpholin-4-ylcarbonyl)-1,3-benzothiazole-4,7-dione] it was 207 to 208 °C.
In the case of `CN(C)CCNC1=CC(=O)c2sc(C(=O)NCCOCCOCCNC(=O)OC(C)(C)C)nc2C1=O` [Example 2, tert-butyl {2-[2-(2-{[(5-{[2-(dimethylamino)ethyl]amino}-4,7-dioxo-4,7-dihydro-1,3-benzothiazol-2-yl)carbonyl]amino}ethoxy)ethoxy]ethyl}carbamate] it was 55 to 57 °C.
The figure for `COCCN(CCOC)C(=O)c1nc2c(s1)C(=O)C=C(NCCN(C)C)C2=O` [Example 4, 5-{[2-(dimethylamino)ethyl]amino}-N,N-bis(2-methoxyethyl)-4,7-dioxo-4,7-dihydro-1,3-benzothiazole-2-carboxamide] is 92 to 94 °C; for `CN(C)CCNC1=CC(=O)c2sc(C(=O)NCCCN3CCCC3=O)nc2C1=O` [Example 5, 5-{[2-(dimethylamino)ethyl]amino}-4,7-dioxo-N-[3-(2-oxopyrrolidin-1-yl)propyl]-4,7-dihydro-1,3-benzothiazole-2-carboxamide] it is 154 to 156 °C; for `CC(C)CNC(=O)c1nc2c(s1)C(=O)C=C(NCCN(C)C)C2=O` [Example 7, 5-{[2-(dimethylamino)ethyl]amino}-N-isobutyl-4,7-dioxo-4,7-dihydro-1,3-benzothiazole-2-carboxamide] it is 163 to 164 °C.
For `CN(C)CCNC1=CC(=O)c2sc(C(=O)NCc3ccccc3)nc2C1=O` [Example 12, N-benzyl-5-{[2-(dimethylamino)ethyl]amino}-4,7-dioxo-4,7-dihydro-1,3-benzothiazole-2-carboxamide], the melting point was 188 to 189 °C.
In the case of `CN(C)CCNC1=CC(=O)c2sc(C(=O)NCC3CCCCC3)nc2C1=O` [Example 13, N-(cyclohexylmethyl)-5-{[2-(dimethylamino)ethyl]amino}-4,7-dioxo-4,7-dihydro-1,3-benzothiazole-2-carboxamide] it was 171 to 172 °C.
`CN(C)CCNC1=CC(=O)c2sc(C(=O)N3CCN(C(=O)N4CCOCC4)CC3)nc2C1=O` [Example 16, 5-{[2-(dimethylamino)ethyl]amino}-2-{[4-(morpholin-4-ylcarbonyl)piperazin-1-yl]carbonyl}-1,3-benzothiazole-4,7-dione] came in with a melting point of 211 to 212 °C.
In the case of `O=C1C(NCCN2CCCC2)=CC(=O)c2sc(C(=O)N3CCN(C(=O)N4CCOCC4)CC3)nc21` [Example 17, 2-{[4-(morpholin-4-ylcarbonyl)piperazin-1-yl]carbonyl}-5-[(2-pyrrolidin-1-ylethyl)amino]-1,3-benzothiazole-4,7-dione] it was 193 to 194 °C.
In the case of `CN(C)CCNC1=CC(=O)c2sc(C(=O)N3CCN(S(C)(=O)=O)CC3)nc2C1=O` [Example 19, 5-{[2-(dimethylamino)ethyl]amino}-2-{[4-(methylsulphonyl)piperazin-1-yl]carbonyl}-1,3-benzothiazole-4,7-dione] it was 201 to 202 °C; in that of `CN(C)CCNC1=CC(=O)c2sc(C(=O)N3CCN(C(=O)C4CCCO4)CC3)nc2C1=O` (centres unmarked) [Example 20, 5-{[2-(dimethylamino)ethyl]amino}-2-{[4-(tetrahydrofuran-2-ylcarbonyl)piperazin-1-yl]carbonyl}-1,3-benzothiazole-4,7-dione], 168 to 169 °C; in that of `CN(C)CCNC1=C(Br)C(=O)c2sc(C(=O)N3CCN(C(=O)C4CCCO4)CC3)nc2C1=O` (centres unmarked) [Example 21, 6-bromo-5-{[2-(dimethylamino)ethyl]amino}-2-{[4-(tetrahydrofuran-2-ylcarbonyl)piperazin-1-yl]carbonyl}-1,3-benzothiazole-4,7-dione], 161 to 162 °C.
`CN(C)CCNC1=CC(=O)c2sc(C(=O)N3CCCC3)nc2C1=O` [Example 22, 5-{[2-(dimethylamino)ethyl]amino}-2-(pyrrolidin-1-ylcarbonyl)-1,3-benzothiazole-4,7-dione] came in with a melting point of 207 to 208 °C.
As to `CCNC(=O)c1nc2c(s1)C(=O)C=C(NCCN(C)C)C2=O` [Example 24, 5-{[2-(dimethylamino)ethyl]amino}-N-ethyl-4,7-dioxo-4,7-dihydro-1,3-benzothiazole-2-carboxamide], the melting point was in the range of 174 to 175 °C.
In the case of `CN(C)CCNC1=CC(=O)c2sc(C(=O)Nc3ccc4c(c3)OCO4)nc2C1=O` [Example 26, N-1,3-benzodioxol-5-yl-5-{[2-(dimethylamino)ethyl]amino}-4,7-dioxo-4,7-dihydro-1,3-benzothiazole-2-carboxamide] it was 220 to 221 °C; in that of `CN(C)CCNC1=CC(=O)c2sc(C(=O)Nc3ccc(F)cc3)nc2C1=O` [Example 33, 5-{[2-(dimethylamino)ethyl]amino}-N-(4-fluorophenyl)-4,7-dioxo-4,7-dihydro-1,3-benzothiazole-2-carboxamide], 208 to 209 °C.
The figure for `CN(C)CCNC1=CC(=O)c2nc(C(=O)N3CCCC3)sc2C1=O` [Example 34, 6-{[2-(dimethylamino)ethyl]amino}-2-(pyrrolidin-1-ylcarbonyl)-1,3-benzothiazole-4,7-dione] is 224 to 225 °C.
In the case of `COc1ccc(NC(=O)c2nc3c(s2)C(=O)C=C(NCCN(C)C)C3=O)cc1F` [Example 35, 5-{[2-(dimethylamino)ethyl]amino}-N-(3-fluoro-4-methoxyphenyl)-4,7-dioxo-4,7-dihydro-1,3-benzothiazole-2-carboxamide] it was 199 to 200 °C; in that of `COc1ccc2c(c1)CCCN2C(=O)c1nc2c(s1)C(=O)C=C(NCCN(C)C)C2=O` [Example 36, 5-{[2-(dimethylamino)ethyl]amino}-2-[(6-methoxy-3,4-dihydroquinolin-1(2H)-yl)carbonyl]-1,3-benzothiazole-4,7-dione], 192 to 193 °C.
On to `COc1ccc(C(=O)N2CCN(C(=O)c3nc4c(s3)C(=O)C=C(NCCN(C)C)C4=O)CC2)cc1` [Example 37, 5-{[2-(dimethylamino)ethyl]amino}-2-{[4-(4-methoxybenzoyl)piperazin-1-yl]carbonyl}-1,3-benzothiazole-4,7-dione], for which the melting point was 209 to 210 °C.
In the case of `CCNC(=O)c1nc2c(s1)C(=O)C=C(N(C)CCN(C)C)C2=O` [Example 38, 5-[[2-(dimethylamino)ethyl](methyl)amino]-N-ethyl-4,7-dioxo-4,7-dihydro-1,3-benzothiazole-2-carboxamide] it was 163 to 164 °C; in that of `CCNC(=O)c1nc2c(s1)C(=O)C=C(NCCc1ccc(F)cc1)C2=O` [Example 39, N-ethyl-5-{[2-(4-fluorophenyl)ethyl]amino}-4,7-dioxo-4,7-dihydro-1,3-benzothiazole-2-carboxamide], 260 to 261 °C.

A word on the melting point: it is the temperature, or range, at which the solid turns liquid.

The record behind these values is patent US7795284B2, “4,7-dioxobenzothiazole-2-carboxamide derivatives, their preparation and their therapeutic uses” (Ipsen Pharma S.A.S., priority 2004, dated 2010).
